Reference: patent US7875587B2, “Peptide analogues of GIP for treatment of diabetes, insulin resistance and obesity” (UUTECH Limited, priority 2004, dated 2011)
Starred links: 1 amine or outer side, 2 acyl side, 3 side chain; linkers in the order of their positions; H or OH if unused. Non-standard residues stand in square brackets, D forms with d. No end group written: not given here. X1 = O=C([C@H](Cc1ccc(O)cc1)N(C[C@H](O)[C@@H](O)[C@H](O)[C@H](O)CO)[*:1])[*:2]; Hyp = O=C(O)[C@@H]1C[C@@H](O)CN1

Key:
BRIN-BD11 cells [1] = assay: GIP-stimulated insulin release from BRIN-BD11 cells (antagonism); format: cell-based; details: 5.6 mM glucose, native GIP 10^-7 M
Procedure: Tissue culture. […] Cells were maintained in sterile tissue culture flasks (Corning Glass Works, Sunderland, UK) at 37° C. in an atmosphere of 5% CO2 and 95% air using an LEEC incubator (Laboratory Technical Engineering, Nottingham, UK). Acute studies of insulin release. Insulin release from BRIN-BD11 cells was determined using cell monolayers ([…]. et al., 1996, Diabetes 45:1132-1140). Cells were harvested with the aid of trypsin/EDTA (Gibco), seeded into 24-multiwell plates (Nunc, Roskilde, Denmark) at a density of 1.0×10^5 cells per well, and allowed to attach overnight at 37° C.

DPP IV = biological target: T1, DPP IV (Sus scrofa, UniProt P22411); assay: Degradation of GIP and analogues by DPP IV (HPLC); format: in vitro ADME
T1 construct: purchased Sigma (Poole, Dorset, UK)
T1 sequence (P22411 whole entry): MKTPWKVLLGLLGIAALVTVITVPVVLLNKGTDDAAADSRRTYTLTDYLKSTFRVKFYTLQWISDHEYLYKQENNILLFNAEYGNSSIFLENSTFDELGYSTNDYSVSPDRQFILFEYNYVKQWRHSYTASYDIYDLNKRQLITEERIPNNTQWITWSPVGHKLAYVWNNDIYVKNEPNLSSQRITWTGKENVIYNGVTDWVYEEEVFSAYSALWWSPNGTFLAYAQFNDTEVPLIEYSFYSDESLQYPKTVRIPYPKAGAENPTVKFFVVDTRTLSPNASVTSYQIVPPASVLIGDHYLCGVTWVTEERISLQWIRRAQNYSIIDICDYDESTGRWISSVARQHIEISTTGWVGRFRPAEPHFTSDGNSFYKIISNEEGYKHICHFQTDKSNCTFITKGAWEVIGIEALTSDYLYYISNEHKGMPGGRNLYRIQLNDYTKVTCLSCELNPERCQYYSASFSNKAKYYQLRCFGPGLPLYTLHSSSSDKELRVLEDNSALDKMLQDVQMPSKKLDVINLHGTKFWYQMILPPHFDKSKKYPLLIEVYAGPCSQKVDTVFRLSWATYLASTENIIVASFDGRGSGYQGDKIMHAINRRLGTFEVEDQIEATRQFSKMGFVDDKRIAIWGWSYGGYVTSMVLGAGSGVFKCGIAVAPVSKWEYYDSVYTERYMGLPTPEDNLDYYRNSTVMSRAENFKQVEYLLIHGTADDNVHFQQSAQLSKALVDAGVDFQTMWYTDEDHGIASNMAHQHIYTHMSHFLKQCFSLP
Procedure: Degradation of GIP and Tyr^1-glucitol GIP by DPP IV. HPLC-purified GIP or Tyr^1-glucitol GIP were incubated at 37° C. with DPP-IV (5 mU) for various time periods in a reaction mixture made up to 500 μl with 50 mmol/l triethanolamine-HCl, pH 7.8 (final peptide concentration 1 mmol/l). Enzymatic reactions were terminated after 0, 2, 4 and 12 hours by addition of 5 μl of 10% (v/v) TFA/water. Samples were made up to a final volume of 1.0 ml with 0.12% (v/v) TFA and stored at −20° C. prior to HPLC analysis.
(§1) HPLC analysis of degraded GIP and Tyr^1-glucitol GIP. […] Using 0.1% (v/v) TFA in 70% acetonitrile/H20, the concentration of acetonitrile in the eluting solvent was raised from 0% to 31.5% over 15 min, to 38.5% over 30 minutes and from 38.5% to 70% over 5 minutes, using linear gradients. The absorbance was monitored at 206 nm and peak areas evaluated using a model 2221 LKB integrator. Samples recovered manually were concentrated using a Speed-Vac concentrator.
(§2) Electrospray ionization-mass spectrometry (ESI-MS) was carried out as described in Example 2. Degradation of GIP and novel GIP analogues by DPP IV and human plasma was carried out as described in Example 2.

[2] = Degradation of GIP and analogues by human plasma (HPLC); format: in vitro ADME
Procedure: Degradation of GIP and Tyr^1-glucitol GIP by human plasma. […] […] The reactions were terminated by addition of 5 μl of TFA and the final volume adjusted to 1.0 ml using 0.1% v/v TFA/water. Samples were centrifuged (13,000 g, 5 minutes) and the supernatant applied to a C-18 Sep-Pak cartridge (Millipore-Waters) which was previously primed and washed with 0.1% (v/v) TFA/water. […] The volume was adjusted to 1.0 ml with 0.12% (v/v) TFA/water prior to HPLC purification.
as §1, §2

Wistar rats = assay: In vivo plasma glucose and insulin after i.p. glucose with peptide in Wistar rats; design: species or system rat
Procedure: In vivo biological activity of GIP and Tyr^1-glucitol GIP. Effects of GIP and Tyr^1-glucitol GIP on plasma glucose and insulin concentrations were examined using 10-12 week old male Wistar rats. The animals were housed individually in an air conditioned room and 22±2° C. with a 12 hour light/12 hour dark cycle. Drinking water and a standard rodent maintenance diet (Trouw Nutrition, Belfast, Northern Ireland) were supplied ad libitum. Food was withdrawn for an 18 hour period prior to intraperitoneal injection of glucose alone (18 mmol/kq body weight) or in combination with either GIP or Tyr^1-glucitol GIP (10 nmol/kg). Test solutions were administered in a final volume of 8 ml/kg body weight. Blood samples were collected at 0, 15, 30 and 60 minutes from the cut tip of the tail of conscious rats into chilled fluoride/heparin microcentrifuge tubes (Sarstedt, Numbrecht, Germany). Samples were centrifuged using a Beckman microcentrifuge for about 30 seconds at 13,000 g. Plasma samples were aliquoted and stored at −20° C. prior to glucose and insulin determinations. All animal studies were done in accordance with the Animals (Scientific Procedures) Act 1986.
Analyses. Plasma glucose was assayed by an automated glucose oxidase procedure using a Beckman Glucose Analyzer II [33]. Plasma insulin was determined by dextran charcoal radioimmunoassay as described previously. Incremental areas under plasma glucose and insulin area under the curve (AUC) were calculated using a computer program (CAREA) employing the trapezoidal rule with baseline subtraction. Results are expressed as mean±SEM and values were compared using the Student's unpaired t-test.

BRIN-BD11 cells [3] = assay: Acute tests for insulin secretion from BRIN-BD11 cells; format: cell-based
Procedure: Culture of insulin secreting cells. BRIN-BD11 cells were cultured in sterile tissue culture flasks (Corning, Glass Works, UK) using RPMI-1640 tissue culture medium containing 10% (v/v) foetal calf serum, 1% (v/v) antibiotics (100 U/ml penicillin, 0.1 mg/ml streptomycin) and 11.1 mM glucose. The cells were maintained at 37° C. in an atmosphere of 5% CO2 and 95% air using a LEEC incubator (Laboratory Technical Engineering, Nottingham, UK).
Acute tests for insulin secretion. Before experimentation, the cells were harvested from the surface of the tissue culture flasks with the aid of trypsin/EDTA (Gibco), seeded into 24-multiwell plates (Nunc, Roskilde, Denmark) at a density of 1.5×10^5 cells per well, and allowed to attach overnight at 37° C. Acute tests for insulin release were preceded by 40 minutes pre-incubation at 37° C. in 1.0 ml Krebs Ringer bicarbonate buffer (115 mM NaCl, 4.7 mM KCl, 1.28 mM CaCl2, 1.2 mM KH2PO4, 1.2 mM MgSO4, 10 mM NaHCO3, 5 g/l bovine serum albumin, pH 7.4) supplemented with 1.1 mM glucose. Test incubations were performed (n=12) at two glucose concentrations (5.6 mM and 16.7 mM) with a range of concentrations (10^−13 to 10^−8 M) of GIP or GIP analogues. After 20 minutes incubation, the buffer was removed from each well and aliquots (200 μl) were used for measurement of insulin by radioimmunoassay.

[4] = 10 nmol/kg i.p. with glucose 18 mmol/kg, rats

(Hyp^3)GIP: Glu^3-substituted form of GIP (hydroxyproline at position 3) (YA[Hyp]GTFISDYSIAMDKIHQQDFVNWLLAQKGKKNDWKHNITQ)
inhibition of GIP-stimulated insulin secretion (BRIN-BD11 cells [1]): inhibited in a dose-dependent fashion

(Lys^3)GIP: Glu^3-substituted form of GIP (lysine at position 3) (YAKGTFISDYSIAMDKIHQQDFVNWLLAQKGKKNDWKHNITQ)
inhibition of GIP-stimulated insulin secretion (BRIN-BD11 cells [1]): inhibited in a dose-dependent fashion

(Phe^3)GIP: Glu^3-substituted form of GIP (phenylalanine at position 3) (YAFGTFISDYSIAMDKIHQQDFVNWLLAQKGKKNDWKHNITQ)
inhibition of GIP-stimulated insulin secretion (BRIN-BD11 cells [1]): inhibited in a dose-dependent fashion

(Trp^3)GIP: Glu^3-substituted form of GIP (tryptophan at position 3) (YAWGTFISDYSIAMDKIHQQDFVNWLLAQKGKKNDWKHNITQ)
inhibition of GIP-stimulated insulin secretion (BRIN-BD11 cells [1]): inhibited in a dose-dependent fashion

(Tyr^3)GIP: Glu^3-substituted form of GIP (tyrosine at position 3) (YAYGTFISDYSIAMDKIHQQDFVNWLLAQKGKKNDWKHNITQ)
inhibition of GIP-stimulated insulin secretion (BRIN-BD11 cells [1]): inhibited in a dose-dependent fashion

GIP(3-42): N-terminally truncated GIP, main DPP IV metabolite after removal of Tyr^1-Ala^2 (EGTFISDYSIAMDKIHQQDFVNWLLAQKGKKNDWKHNITQ; listed as Homo sapiens)
inhibition of GIP-stimulated insulin secretion (BRIN-BD11 cells [1]): inhibited in a dose-dependent fashion

[X1]AEGTFISDYSIAMDKIHQQDFVNWLLAQKGKKNDWKHNITQ [Glycated GIP]
stability on incubation with DPP IV (DPP IV; Example 2, 2-12 hours incubation): remained almost completely intact
resistance to in vitro degradation with DPP IV relative to native GIP (DPP IV; Example 3, summary of Table 1): more resistant than native GIP
% Intact peptide remaining after time (h) (DPP IV; incubation with DPP IV, 0 h): 100%
remaining at 2 h, 1 mmol/l (DPP IV; isolated enzyme dpp iv, pH 7.8, incubation with DPP IV, 2 h, read-out: % Intact peptide remaining after time (h)): 100%
remaining at 4 h, 1 mmol/l (DPP IV; isolated enzyme dpp iv, pH 7.8, incubation with DPP IV, 4 h, read-out: % Intact peptide remaining after time (h)): 100%
remaining at 8 h, 1 mmol/l (DPP IV; isolated enzyme dpp iv, pH 7.8, incubation with DPP IV, 8 h, read-out: % Intact peptide remaining after time (h)): 100%
remaining at 24 h, 1 mmol/l (DPP IV; isolated enzyme dpp iv, pH 7.8, incubation with DPP IV, 24 h, read-out: % Intact peptide remaining after time (h)): 100%
% Intact peptide remaining after incubations with human plasma ([2]; 0 h): 100%
effect of DPA on plasma degradation of the peptide ([2]; 24 hours in the presence of DPA): complete abolition of degradation
% Intact peptide remaining after incubations with human plasma ([2]; 24 hours in the presence of DPA (diprotin A)): 100%
degradation by human plasma ([2]; Example 2, 4 hours incubation): did not result in the formation of any detectable degradation fragments
remaining at 2 h, 20 µg/ml ([2]; human, plasma, pH 7.8, 2 h, read-out: % Intact peptide remaining after incubations with human plasma): 100%
remaining at 4 h, 20 µg/ml ([2]; human, plasma, pH 7.8, 4 h, read-out: % Intact peptide remaining after incubations with human plasma): 100%
remaining at 8 h, 20 µg/ml ([2]; human, plasma, pH 7.8, 8 h, read-out: % Intact peptide remaining after incubations with human plasma): 100%
remaining at 24 h, 20 µg/ml ([2]; human, plasma, pH 7.8, 24 h, read-out: % Intact peptide remaining after incubations with human plasma): 100%
overall insulin response (AUC) compared with glucose alone (Wistar rats; 10 nmol/kg i.p. with glucose): significantly greater
plasma insulin response (AUC) compared with GIP (Wistar rats; 10 nmol/kg i.p. with glucose): significantly greater than after GIP
increase of antihyperglycemic action relative to GIP, estimated from AUC (Wistar rats; [4]): 38%
increase of insulin-releasing action relative to GIP, estimated from AUC (Wistar rats; [4]): 62%
plasma glucose AUC compared to GIP (Wistar rats; 10 nmol/kg i.p. with glucose, vs GIP): significantly lower
plasma glucose concentrations and AUC compared with control group (Wistar rats; 10 nmol/kg i.p. with glucose, vs glucose alone, 0-60 min): significantly lower
insulin secretion from BRIN-BD11 cells (BRIN-BD11 cells [3]; 5.6 and 16.7 mM glucose, 10^-13 to 10^-8 M peptide): considerably greater insulinotropic response compared with native peptide
insulin-releasing potency relative to GIP (BRIN-BD11 cells [3]; glucose-responsive clonal B-cells): several orders of magnitude greater than GIP
